Data published in publication PMC8032764 (Scientific Reports, 2021).
Read-outs that look alike come from different tables or passages of the source.

What was measured:
[1] = Plasma concentration in PET study; type: in vivo; details: human
Experimental: The study was single-blind, i.e., subjects were blinded to dose. Blood sampling was performed at four different timepoints starting 30 min before the post dose PET scan.

Purinergic P2Y = assay: Cerep binding; details: 10 μM; [35S]dATPαS; rat cerebral cortex
Serotonin 5-HT1A = system: T1, Serotonin 5-HT1A; assay: Cerep binding; set-up: species or system human; details: 10 μM; [3H]8-OH-DPAT; hum. recomb. (HEK-293)
T1 construct: purchased Eurofins Cerep

Vasopressin V1A = system: T2, Vasopressin V1A; assay: Cerep binding; set-up: species or system human; details: 10 μM; [3H]AVP; hum. recomb. (CHO)
T2 construct: host or cells: CHO

Melatonin MT1 (ML1A) = system: T3, Melatonin MT1 (ML1A); assay: Cerep binding; set-up: species or system human; details: 10 μM; [125I]2-iodomelatonin; hum. recomb. (CHO)
T3 construct: host or cells: CHO

Neuropeptide Y2 = system: T4, Neuropeptide Y2; assay: Cerep binding; set-up: species or system human; details: 10 μM; [125I]peptide YY; hum., KAN-TS cells
T4 construct: purchased Eurofins Cerep

Serotonin 5-HT2C = system: T5, Serotonin 5-HT2C; assay: Cerep binding; set-up: species or system human; details: 10 μM; [3H]mesulergine; hum. recomb. (CHO)
T5 construct: purchased Eurofins Cerep

[2] = system: Somatostatin (non-selective); assay: Cerep binding; details: 10 μM; [125I]Tyr11-somatostatin-14; mouse, AtT-20 cells
Dopamine D5 = system: T6, Dopamine D5; assay: Cerep binding; set-up: species or system human; details: 10 μM; [3H]SCH 23390; hum. recomb. (GH4)
T6 construct: host or cells: GH4

Na+ channel (site 2) = assay: Cerep binding; details: 10 μM; [3H]batrachotoxinin; rat cerebral cortex
[3] = system: Platelet derived growth factor (PDGF); assay: Cerep binding; details: 10 μM; [125I]PDGF BB; mouse, Balb/c 3T3 cells
male F-344 rats = assay: Social approach avoidance test
Experimental: Experiments on social approach avoidance were performed as described previously by[41] and[14]. A tracking system (Ethovision, Noldus, The Netherlands) was used to analyse each rat’s pathway.

[4] = Plasma levels, object retrieval task; type: in vivo, Macaca fascicularis; details: cynomolgus monkey, oral; for concentration at 180 min: read-out: total plasma concentration
Experimental: Twelve cynomolgus macaques were presented with a clear acrylic box with one open side baited with a food treat, as described previously[14],[38]. The test is easy when the open side of the box is directed towards the subject and difficult when the open sides face other directions. […] Compound doses were administered in a pseudorandom order. Administration of dose and behavioral measurements were completed blind. Data were analysed using a one-way repeated measures ANOVA followed, in significant cases, by a post hoc Dunnett’s test. Plasma samples were collected from the same three subjects at each dose group at 3 h post administration. […] The calibration range was from 1.0 to 5000 ng/mL. After protein precipitation with ethanol, the sample solution was injected onto a Gemini C18 trapping column (2 × 10 mm; Phenomenex, Torrance, CA, USA) and polar endogenous compounds and salts were rinsed off. […] A drug analogue was used as an internal standard.

Sigma (non-selective) = assay: Cerep binding; details: 10 μM; [3H]DTG; rat cerebral cortex
NMDA (PCP) = assay: Cerep binding; details: 10 μM; [3H]TCP; rat cerebral cortex
GABA (non-selective) = assay: Cerep binding; details: 10 μM; [3H]GABA; rat cerebral cortex
Dopamine D4.4 = system: T7, Dopamine D4.4; assay: Cerep binding; set-up: species or system human; details: 10 μM; [3H]spiperone; hum. recomb. (CHO)
T7 construct: host or cells: CHO

[5] = Pharmacokinetics, single intravenous dosing; type: in vivo; details: Beagle, dog, plasma, 1.0 mg/kg i.v.
healthy male subjects = assay: Study BP25129 single-ascending dose, safety EEG; type: in vivo, human
Experimental: CLINICAL INFORMATION: Safety EEG data from Phase I studies in healthy volunteers
1) Study BP25129 Single-Ascending Dose (SAD) in Healthy Volunteers
Single doses of between 1.5 mg and 1250 mg were administered to groups of eight healthy male subjects (age range 18–44 years) per dose level (6 received active drug, two received placebo). All nine planned cohorts in the Part 1 SAD study were completed, and all subjects completed dosing as planned.
Food Effect (FE) Cohort: Eight subjects were enrolled, all received active drug as planned on two separate occasions, with food condition (Fed or Fasted) on each occasion determined in a randomized manner. All subjects enrolled in the FE portion of Part 1 completed the study.
EEG assessments were made in Cohorts 6, 8, 9 and FE Cohort only:
• Cohort 6: 160 mg (n dosed: 6)
• Cohort 8: 660 mg (n dosed: 6)
• Cohort 9: 1250 mg (n dosed: 6)
• Food effect Cohort: 660 mg ([…]) […]
On the day of dosing, an EEG in the resting, awake state was recorded starting about 1 hour prior to dosing and ending approximately 7 h after dosing. EEG results were recorded either as normal, normal variant or abnormal variant. If an abnormal variant measurement was recorded, then the Investigator could continue recordings as appropriate until a return to […]
participants had several EEGs and several participants had sleep assessments with EEG that were also evaluated: […]

Cc1onc(-c2ccc(F)cc2)c1COc1ccc(C(=O)N2CCS(=O)(=O)CC2)cn1 [basmisanil]
concentration at 3.75 h ([1]; subject 11010, 40 mg, 3.75 h prior to scan): 592 ng/mL
concentration at 3.12 h ([1]; subject 11020, 160 mg, 3.12 h prior to scan): 2280 ng/mL
concentration at 3 h ([1]; subject 11021, 160 mg, 3.00 h prior to scan): 2550 ng/mL
concentration at 2.63 h ([1]; subject 13010, 40 mg, 2.63 h prior to scan): 422 ng/mL
concentration at 4.75 h ([1]; subject 13030, 1000 mg, 4.75 h prior to scan): 2200 ng/mL
concentration at 4.77 h ([1]; subject 13031, 1000 mg, 4.77 h prior to scan): 3350 ng/mL
concentration at 1.48 h ([1]; subject 13040, 20 mg, 1.48 h prior to scan): 111 ng/mL
concentration at 2.2 h ([1]; subject 13041, 20 mg, 2.20 h prior to scan): 398 ng/mL
concentration at 2.43 h ([1]; subject 13050, 80 mg, 2.43 h prior to scan): 1000 ng/mL
% Inhibition (Purinergic P2Y): 9%
% Inhibition (Serotonin 5-HT1A): 0%
% Inhibition (Vasopressin V1A): 13%
% Inhibition (Melatonin MT1 (ML1A)): 14%
% Inhibition (Neuropeptide Y2): 7%
% Inhibition (Serotonin 5-HT2C): 10%
% Inhibition [2]: 18%
% Inhibition (Dopamine D5): -11%
% Inhibition (Na+ channel (site 2)): 0%
% Inhibition [3]: -17%
time spent in the social compartment (male F-344 rats; 3–100 mg/kg p.o., 1 h prior to testing): did not significantly reduce the time spent in the social compartment
anxiogenic-like effect (time in social compartment and in hidden area) (male F-344 rats; up to 100 mg/kg p.o.): did not have an anxiogenic-like effect
concentration at 180 min ([4]; 1 mg/kg p.o.): 257 ng/mL
concentration at 180 min ([4]; 3 mg/kg p.o.): 1020 ng/mL
concentration at 3 h ([4]; 3 mg/kg p.o., read-out: free plasma concentration): 156 nM
concentration at 180 min ([4]; 10 mg/kg p.o.): 2260 ng/mL
concentration at 180 min ([4]; 30 mg/kg p.o.): 2850 ng/mL
% Inhibition (Sigma (non-selective)): 58%
% Inhibition (NMDA (PCP)): 14%
% Inhibition (GABA (non-selective)): -1%
% Inhibition (Dopamine D4.4): 9%
half-life ([5]; n=3): 9.8 ± 0.8 h
clearance ([5]; n=3, read-out: Total CL): 2.2 ± 0.2 mL/min/kg
Vd ([5]; n=3, read-out: Vss): 1.7 ± 0.2 L/kg
tolerability (healthy male subjects; single doses 1.5 mg to 1250 mg): well tolerated
EEG assessments (healthy male subjects; single doses of 160 mg, 660 mg and 1250 mg): did not reveal any findings of clinical
